The source of these data is article PMC11783427, “Enhanced dynamic coupling in a nuclear receptor underlies ligand activity” (The Journal of Biological Chemistry, 2024).

Like-named read-outs stand apart in the source and are kept apart here.

The test system of test [1] is FXR. The following applies: cited from earlier work.
Test [2] has as its target T1, FXR (Homo sapiens, UniProt Q96RI1).
T1 construct: Luciferase with FL-FXR and Coregulators; expressed in transfected cells; host or cells: HeLa cells
T1 sequence (Q96RI1 1-476 isoform Q96RI1-1): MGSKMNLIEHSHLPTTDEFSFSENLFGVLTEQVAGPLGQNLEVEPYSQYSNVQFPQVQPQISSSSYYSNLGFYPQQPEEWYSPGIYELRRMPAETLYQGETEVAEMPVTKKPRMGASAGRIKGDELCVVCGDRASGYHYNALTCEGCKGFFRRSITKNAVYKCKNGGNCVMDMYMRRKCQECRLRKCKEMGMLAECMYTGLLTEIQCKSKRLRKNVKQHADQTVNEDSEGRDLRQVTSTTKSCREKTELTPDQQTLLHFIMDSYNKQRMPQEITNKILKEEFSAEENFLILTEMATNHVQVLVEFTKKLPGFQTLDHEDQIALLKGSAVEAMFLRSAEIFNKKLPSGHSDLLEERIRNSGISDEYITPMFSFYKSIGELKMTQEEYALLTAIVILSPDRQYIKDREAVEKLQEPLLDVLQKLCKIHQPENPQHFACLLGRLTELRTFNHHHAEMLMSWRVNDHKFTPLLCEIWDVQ
T1 sequence (P19793 1-462 partner): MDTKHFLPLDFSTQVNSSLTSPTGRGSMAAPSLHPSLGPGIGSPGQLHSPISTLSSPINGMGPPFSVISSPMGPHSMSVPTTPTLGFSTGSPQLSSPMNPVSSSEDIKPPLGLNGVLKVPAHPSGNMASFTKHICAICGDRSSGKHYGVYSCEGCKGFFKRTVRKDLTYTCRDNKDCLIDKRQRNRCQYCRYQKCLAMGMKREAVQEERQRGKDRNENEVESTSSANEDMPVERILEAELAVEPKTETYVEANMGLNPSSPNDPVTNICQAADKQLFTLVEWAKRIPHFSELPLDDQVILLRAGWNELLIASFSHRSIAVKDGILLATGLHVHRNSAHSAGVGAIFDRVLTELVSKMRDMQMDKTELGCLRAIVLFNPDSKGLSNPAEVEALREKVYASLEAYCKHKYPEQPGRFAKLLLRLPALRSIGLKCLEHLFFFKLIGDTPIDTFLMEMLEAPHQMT
The experiment in a line: Dual-luciferase reporter assay of FXR transcription (IR-1-CON-luc and PLTP-luc) in HeLa cells. The test is classed as cell-based.

Protocol: HeLa cells were obtained from American Type Culture Collection, and the cells were grown in culture in minimum essential medium alpha (Thermo Fisher Scientific) supplemented with 10% FBS and 1% L-glutamine at 37 °C with humidified atmosphere at 5% CO2.
Cells were seeded 10,000 cells/well in a 96-well, clear flat, bottom cell culture plate. Cotransfection was performed with equal amount of 5 ng of each expression plasmids pcDNA3.1-FXR and pcDNA3.1-RXR, along with 50 ng of the pGL4.31-derived plasmids containing the FXRE and 1 ng of renilla luciferase (pRL-CMV). […]
At 24 h after transfection, cells were stimulated with DMSO (final concentration of 0.71%) or test ligands at final concentrations 10 μM or 100 μM, as appropriate. After another 24 h incubation, Firefly luciferase activity and Renilla luciferase activity were measured using the Dual-Glo kit (Promega) using a SpectraMax iD5 plate reader. […]
Data for luciferase assays are presented as the mean ± standard SD of at least three independent replicates. p values were calculated using two-way ANOVA with Dunnett’s multiple comparisons test to access the differences between specific pairs of means. For coregulator mean comparisons, p values were calculated using one-way ANOVA with Sidaks’s multiple comparisons. […]

As for `CC(C)c1onc(-c2c(Cl)cccc2Cl)c1COc1ccc(/C=C/c2cccc(C(=O)O)c2)c(Cl)c1` [GW4064], the EC50 in the test with FXR [1] (synthetic FXR agonist) was […].
For the compound `C[C@H](CCC(=O)O)[C@H]1CC[C@H]2[C@@H]3CC[C@@H]4C[C@H](O)CC[C@]4(C)[C@H]3CC[C@]12C` [LCA, lithocholic acid], on FXR [2] (100 μM ligand, compared with 10 μM OCA, Fig. S1A), the “luciferase activity (efficacy of FXR transcriptional activation)” value is on record as “falls short of 10 μM OCA levels”. Also, the 50% effective concentration (EC50) in the test with FXR [1] (weak agonist of FXR) is […].
On to `CC[C@H]1[C@@H](O)[C@@H]2[C@H](CC[C@]3(C)[C@@H]([C@H](C)CCC(=O)O)CC[C@@H]23)[C@@]2(C)CC[C@@H](O)C[C@@H]12` [OCA, obeticholic acid], for which the “luciferase activity (efficacy of FXR transcriptional activation)” value on FXR [2] (10 μM ligand, both IR-1-CON-luc and PLTP-luc, compared among OCA, CDCA, LCA) was “highest efficacy”. For the same compound, the EC50 in the test with FXR [1] (FXR) is […]. Besides, in the test on FXR [1] (relative to CDCA), the “increase in potency over the endogenous agonist CDCA in FXR activation” value is recorded as […].

One may read the EC50 as the midpoint of the concentration-response curve.
